From article PMC9715518, “Human and rat microsomal metabolites of N-tert-butoxycarbonylmethamphetamine and its urinary metabolites in rat” (Forensic Toxicology, 2021)
Several values for one entry are separate records, joined by “and”; a condition that tells them apart may be missing. Identical values can stand only once.

Columns and labels:
[1] = pH 1.5, 37 °C; cited from earlier work
[2] = Microsomal metabolism test, rat liver microsomes
[3] = Microsomal metabolism test, human liver microsomes
[4] = Rat administration test, urinary excretion
[5] = rat no. 1, urine 0–4 h, BocMA 20 mg/kg i.p.
[6] = rat no. 1, urine 4–8 h, BocMA 20 mg/kg i.p.
[7] = rat no. 1, urine 8–24 h, BocMA 20 mg/kg i.p.
[8] = rat no. 1, urine 24–48 h, BocMA 20 mg/kg i.p.
[9] = rat no. 2, urine 0–4 h, BocMA 20 mg/kg i.p.
[10] = rat no. 2, urine 4–8 h, BocMA 20 mg/kg i.p.
[11] = rat no. 2, urine 8–24 h, BocMA 20 mg/kg i.p.
[12] = rat no. 3, urine 0–4 h, BocMA 20 mg/kg i.p.
[13] = rat no. 3, urine 4–8 h, BocMA 20 mg/kg i.p.
[14] = rat no. 3, urine 8–24 h, BocMA 20 mg/kg i.p.
[15] = rat no. 3, urine 24–48 h, BocMA 20 mg/kg i.p.
[16] = rat no. 3, urine 48–72 h, BocMA 20 mg/kg i.p.

SMILES: CC(Cc1ccccc1)N(C)C(=O)OC(C)(C)C (centres unmarked) [BocMA, N-tert-butoxycarbonylmethamphetamine]
- Half-life in model gastric juice solution [1]: 50 min
- Incubation time at which peak intensity was highest ([2]; RLM test): 0 min
- BocMA degraded ([2]; RLM, first 3 min): 83%
- ER (extraction ratio) ([2]; RLM, mean ± SD, n = 3): 0.92 and 0.92 ± 0.01
- CLint (estimated intrinsic clearance) ([2]; RLM, scaled to whole liver, mean ± SD, n = 3): 640 ± 70 mL/min/kg body wt.
- CLH (estimated hepatic clearance) ([2]; RLM, well-stirred model without protein binding, mean ± SD, n = 3): 51 ± 1 mL/min/kg body wt.
- half-life at 1 μg/mL ([2]; rat, microsomes, pH 7.4): 2 ± 0.2 min
- microsomal CLint at 1 μg/mL ([2]; rat, microsomes, pH 7.4): 360 ± 40 µL/min/mg
- BocMA degraded ([3]; HLM, first 8 min): 80%
- ER (extraction ratio) ([3]; HLM, mean ± SD, n = 3): 0.90 and 0.90 ± 0.01
- CLint (estimated intrinsic clearance) ([3]; HLM, scaled to whole liver, mean ± SD, n = 3): 200 mL/min/kg body wt. and 200 ± 20 mL/min/kg body wt.
- CLH (estimated hepatic clearance) ([3]; HLM, well-stirred model without protein binding, mean ± SD, n = 3): 19 ± 1 mL/min/kg body wt.
- half-life at 1 μg/mL ([3]; human, microsomes, pH 7.4): 3.2 ± 0.3 min
- microsomal CLint at 1 μg/mL ([3]; human, microsomes, pH 7.4): 220 ± 20 µL/min/mg
- BocMA absolute amount in urine ([4]; average of 3 rats, urine 0–72 h total, BocMA 20 mg/kg i.p.): 16000 ng
- BocMA absolute amount in urine [4, 5]: 87 ng
- BocMA concentration in urine [4, 5]: 58 ng/mL
- BocMA absolute amount in urine ([4]; rat no. 1, urine 0–72 h total, BocMA 20 mg/kg i.p.): 240 ng
- BocMA absolute amount in urine [4, 6]: 8.9 ng
- BocMA concentration in urine [4, 6]: 8.9 ng/mL
- BocMA absolute amount in urine [4, 7]: 59 ng
- BocMA concentration in urine [4, 7]: 7.4 ng/mL
- BocMA absolute amount in urine [4, 8]: 84 ng
- BocMA concentration in urine [4, 8]: 12 ng/mL
- BocMA absolute amount in urine [4, 9]: 190 ng
- BocMA concentration in urine [4, 9]: 95 ng/mL
- BocMA absolute amount in urine ([4]; rat no. 2, urine 0–72 h total, BocMA 20 mg/kg i.p.): 310 ng
- BocMA absolute amount in urine [4, 10]: 78 ng
- BocMA concentration in urine [4, 10]: 39 ng/mL
- BocMA absolute amount in urine [4, 11]: 44 ng
- BocMA concentration in urine [4, 11]: 2.9 ng/mL
- BocMA absolute amount in urine [4, 12]: 2700 ng
- BocMA concentration in urine [4, 12]: 5400 ng/mL
- BocMA absolute amount in urine ([4]; rat no. 3, urine 0–72 h total, BocMA 20 mg/kg i.p.): 15000 ng
- BocMA absolute amount in urine [4, 13]: 4400 ng
- BocMA concentration in urine [4, 13]: 2200 ng/mL
- BocMA absolute amount in urine [4, 14]: 6800 ng
- BocMA concentration in urine [4, 14]: 680 ng/mL
- BocMA absolute amount in urine [4, 15]: 660 ng
- BocMA concentration in urine [4, 15]: 83 ng/mL
- BocMA absolute amount in urine [4, 16]: 810 ng
- BocMA concentration in urine [4, 16]: 90 ng/mL
- Excreted BocMA as the unchanged form, share of the administered quantity ([4]; rat urine over 72 h, average, n = 3): 0.13%
- Detection in rat urine (LC–QToF–MS) ([4]; urine 0–72 h, BocMA 20 mg/kg i.p., n = 3): detected in urine from all rats
